Measurements taken from patent US10155027B2, “Alpha-galactosidase A and 1-deoxygalactonojirimycin co-formulation for the treatment of fabry disease” (Amicus Therapeutics, Inc., priority 2012, dated 2018).

Legend:
[1] = system: R301Q fibroblast cells derived from Fabry patients; test: α-Gal A uptake and GL-3 reduction in R301Q Fabry patient fibroblasts; format: cell-based, human; settings: 0.5 nM enzyme co-formulated with 0.1-100 μM DGJ vs alone
Description: The effect of co-formulating α-Gal A with DGJ on α-Gal A uptake and GL-3 reduction in R301Q and C52S fibroblast cells derived from Fabry patients was determined. 0.5 nM α-Gal A was tested alone or co-formulated with 0.1, 1.0, 10 or 100 μM DGJ. […] The graph bars represent the average of compiled data from 4 separate experiments.
Further reduction after co-incubation with DGJ is also similar between the two enzymes (˜40-50% of baseline). The graph bars represent the average of compiled data from 4 separate experiments.

GL-3 = GL-3 reduction in skin, heart and kidney of GLA KO mice, repeat IV bolus administration; format: in vivo; settings: DGJ 0 mg/kg, 4 biweekly IV bolus
Description: Repeat administration of co-formulated product was tested in fourteen-week old GLA KO mice. The mice received four biweekly (once every two weeks) IV bolus injections of 0.5, 1 or 3 mg/kg α-Gal A (JR-051) alone, or co-formulated with 0.3, 1, 3 or 10 mg/kg of DGJ (AT1001). Plasma and tissue levels of α-Gal A, and tissue levels of GL-3 were measured.
Mouse tissues were homogenized in water (1:16.7 tissue:water) using a Fast Prep homogenizer (Pro Scientific, Thorofare, N.J.). Acetone:methanol (50:50) was added at 5× the volume of the homogenate. Samples were vortexed, re-homogenized in the Fast Prep system, and centrifuged at 10600 g for 10 minutes at room temperature. Each supernatant (200 μL of the upper organic portion) was prepared for solid phase extraction by addition of 200 μL dimethyl sulfoxide (DMSO), 50 μL lactosyl ceramide internal standard (from bovine buttermilk; Matreya, LLC, Pleasant Gap, Pa.) at a final concentration of 1.4 μg/mL, and 600 μL of water:methanol (13:87), followed by vortexing. Solid phase extraction was conducted on a pre-conditioned Bond Elut 40 μm, 100 mg C-18 column (Varian Inc, Palo Alto, Calif.) by washing with 67:23:10 methanol:acetone:water and elution with 1 mL of 9:1 acetone:methanol into silanized glass culture tubes containing 200 μL 0.2 mM sodium acetate in DMSO. Total GL-3 levels were determined from 20 μL of each sample extract by liquid chromatography-tandem mass spectroscopy (LC-MS/MS). LC was conducted using an acetone:methanol:acetonitrile (ACN) with sodium acetate binary mobile phase system (mobile phase A: 40:60 methanol:water with 0.1 mM sodium acetate; mobile phase B: 75:15:10 acetone:methanol:ACN with 0.1 mM sodium acetate) with a flow rate of 0.5 mL/min on a C18 column (Aqua 3 μm 100×3.0 mm, 125 A, Phenomenex, Torrance, Calif.). The final GL-3 elution condition was 90% mobile phase B. MS/MS analysis was carried out under positive ion mode (ESI+) and twelve different isoforms of GL-3 [C16:0, C18:0, C20:0, C22:1, C22:0, C23:0, C22:0(2OH), C24:2, C24:1, C24:0, C24:1(2OH), C24:0(2OH)] as well as internal standard were identified in each sample. The following transitions were monitored: m/z 1046.70→m/z 884.7 for C16:0; m/z 1074.8→m/z 912.8 for C18:0; m/z 1102.8→m/z 940.8 for C20:0; m/z 1128.8→m/z 966.8 for C22:1; m/z 1130.9→m/z 968.8 for C22:0; m/z 1144.9→m/z 982.8 for C23:0; m/z 1146.9→m/z 984.8 for C22:0(2OH); m/z 1154.9→m/z 992.8 for C24:2; m/z 1156.9→m/z 994.8 for C24:1; m/z 1158.9→m/z 996.9 for C24:0; m/z 1172.9→m/z 1010.8 for C24:1(2OH); m/z 1174.9→m/z 1012.8 for C24:0(2OH); and m/z 982.9→m/z 820.8 for the lactosyl ceramide internal standard. For quantitation, the area counts for each isoform were determined and then summed to obtain the total GL-3 area counts. The ratio of the total GL-3 area counts to that of the internal standard was determined and used to calculate the final concentration of GL-3 in each sample based on a linear least squares fit equation applied to an 11-point calibration curve prepared in DMSO. Total GL-3 measurements were normalized to the wet tissue weight of each sample.

[2] = Tissue uptake of α-Gal A (JR-051) in WT mice following single IV infusion; format: in vivo; settings: data not shown
Description: (§1) Table 1 describes the molar ratios of these compounds:
(§2) Plasma was collected at 0, 15, 30, 45, 60, and 90 min, and 24 hrs post-JR-051. Skin, heart, and kidney were collected 24 hrs post-JR-051. JR-051 plasma levels and tissue uptake were assessed by activity and Western blotting (see Methods section below). A comparison was made between JR-051 administered alone and JR-051 co-formulated with AT1001 groups.
A BCA Protein Assay (Pierce, Rockford, Ill.) was used according to the manufacturer's instructions to determine total protein concentration in tissue lysates. […] For tissue Westerns exactly same procedure was followed as described above for plasma except that 50 μg tissue lysate was used.

α-Gal A = biological target: T1, α-Gal A (Homo sapiens, UniProt P06280); test: α-Gal A stability in whole blood ex vivo at 37° C.; format: in vitro ADME; settings: 5 nM and 50 nM α-Gal A formulated without DGJ
T1 construct: purchased JCR Pharmaceuticals Co. Ltd, (Japan) JR-051; host or cells: CHO cells
T1 sequence (P06280 32-429): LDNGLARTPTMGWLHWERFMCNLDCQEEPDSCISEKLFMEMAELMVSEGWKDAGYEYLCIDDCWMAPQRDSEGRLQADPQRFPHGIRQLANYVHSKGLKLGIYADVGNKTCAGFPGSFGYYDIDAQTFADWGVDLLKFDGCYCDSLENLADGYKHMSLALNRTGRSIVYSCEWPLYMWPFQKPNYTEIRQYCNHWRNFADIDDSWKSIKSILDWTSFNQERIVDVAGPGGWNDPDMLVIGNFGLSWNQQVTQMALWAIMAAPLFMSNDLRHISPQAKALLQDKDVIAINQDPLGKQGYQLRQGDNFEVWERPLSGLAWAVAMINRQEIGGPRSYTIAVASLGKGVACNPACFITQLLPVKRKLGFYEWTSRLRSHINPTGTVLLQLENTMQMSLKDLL
Description: The effect of co-formulating α-Gal A with DGJ on α-Gal A stability in blood ex vivo was examined. Time-dependent loss of α-Gal A activity in whole blood at 37° C. was determined. 5 nM and 50 nM α-Gal A was formulated with or without 10 μM DGJ.

[3] = Plasma PK of α-Gal A (JR-051) in WT mice following single IV infusion; format: in vivo; settings: JR-051 1 mg/kg single IV infusion
Description: as §1, §2
Diluted plasma (1:50) in Lysis Buffer (˜10 μg total protein) was subjected to SDS-PAGE on 4-12% polyacrylamide gels (Invitrogen, Grand Island, N.Y.), transferred to nitrocellulose membranes (Invitrogen), and immunoblotted with rabbit anti-human α-Gal A primary antibody (1:2000 dilution; from Shire Pharmaceuticals, Cambridge, Mass.). Protein bands were detected using peroxidase-conjugated goat anti-rabbit secondary antibody (Jackson Immunosearch Labs, West Grove, Pa.) in combination with enhanced chemiluminescence (Pierce, Rockford, Ill.). Blots were scanned on an Image Station 4000R (Kodak, Rochester, N.Y.).

In the case of “JR-051: recombinant human α-Gal A produced in CHO cells transformed with an expression vector encoding the human α-Gal A gene (JCR Pharmaceuticals)”, the “increase of enzyme uptake by DGJ” value [1] is reported as “up to 3 fold”, the “GL-3% reduction in heart” value (GL-3; α-Gal A 0.5 mg/kg) is reported as 72.1% and the “GL-3% reduction in kidney” value (GL-3; α-Gal A 0.5 mg/kg) is reported as 42.7%. The “GL-3% reduction in skin” value (GL-3; α-Gal A 0.5 mg/kg) was 85.7%, the “GL-3% reduction in heart” value (GL-3; α-Gal A 1 mg/kg) was 82.7% and the “GL-3% reduction in kidney” value (GL-3; α-Gal A 1 mg/kg) was 54.9%. For the same molecule, the “GL-3% reduction in skin” value (GL-3; α-Gal A 1 mg/kg) was 90.7%, the “GL-3% reduction in heart” value (GL-3; α-Gal A 3 mg/kg) was 93.7% and the “GL-3% reduction in kidney” value (GL-3; α-Gal A 3 mg/kg) was 69.5%. For the same molecule, the “GL-3% reduction in skin” value (GL-3; α-Gal A 3 mg/kg) was 97.4%, the “effect on α-Gal A uptake in skin” value [2] was “no significant effect” and the “half-life of α-Gal A in whole blood” value (α-Gal A) was 4 to 5 h. For the same molecule, the AUC [3] was 17960 nmol/mL and the T1/2 [3] was 6.6 min.

B1: Fabrazyme: Agalsidase beta, produced by recombinant DNA technology in a Chinese hamster ovary (CHO) cell line; Genzyme Corporation (protein, UniProt P06280 32-429, looked up)
Alpha-galactosidase A: LDNGLARTPTMGWLHWERFMCNLDCQEEPDSCISEKLFMEMAELMVSEGWKDAGYEYLCIDDCWMAPQRDSEGRLQADPQRFPHGIRQLANYVHSKGLKLGIYADVGNKTCAGFPGSFGYYDIDAQTFADWGVDLLKFDGCYCDSLENLADGYKHMSLALNRTGRSIVYSCEWPLYMWPFQKPNYTEIRQYCNHWRNFADIDDSWKSIKSILDWTSFNQERIVDVAGPGGWNDPDMLVIGNFGLSWNQQVTQMALWAIMAAPLFMSNDLRHISPQAKALLQDKDVIAINQDPLGKQGYQLRQGDNFEVWERPLSGLAWAVAMINRQEIGGPRSYTIAVASLGKGVACNPACFITQLLPVKRKLGFYEWTSRLRSHINPTGTVLLQLENTMQMSLKDLL
With B1 the “increase of enzyme uptake by DGJ” value [1] was “up to 4.6 fold”.
